# Test results as given in patent publication US20090099192A1, “Substituted 1H-pyrrole-2,5-diones” (Bayer CropScience AG, priority 2004, published 2009).
# Experiments:
# [1] = logP determination by HPLC on reversed-phase column (C 18), EEC Directive 79/831 Annex V.A8; type: physicochemical; settings: reversed-phase C 18, 43° C., acid range (0.1% aqueous phosphoric acid, acetonitrile), marked a)
# Method in brief: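 Reversed-phase C18 HPLC at 43° C, per EEC Directive 79/831 Annex V.A8, acid range: 0.1% aqueous phosphoric acid with linear 10–90% acetonitrile gradient. logP derived from retention time by linear interpolation between calibrating unbranched alkan-2-ones (C3–C16) of known logP.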
# [2] = system: larvae of the mustard beetle (Phaedon cochleariae); test: Phaedon test (spray treatment); type: in vivo; settings: for Kill rate in % after 7 d: 500 g/ha, spray, Brassica pekinensis disks
# Protocol: (§1) [table] To produce a suitable preparation of active compound, 1 part by weight of active compound is mixed with the stated amounts of solvents and emulsifier, and the concentrate is diluted with emulsifier-containing water to the desired concentration. Disks of Chinese cabbage (Brassica pekinensis) are sprayed with an active compound preparation of the desired concentration and, after drying, populated with larvae of the mustard beetle (Phaedon cochleariae). After the desired period of time, the effect in % is determined. 100% means that all beetle larvae have been killed; 0% means that none of the beetle larvae have been killed.
# [3] = system: caterpillars of the army worm (Spodoptera frugiperda); test: Spodoptera frugiperda test (corn leaf disks sprayed); type: in vivo; settings: for Kill rate in % after 7 d: 500 g/ha, spray, Zea mays leaf disks
# Protocol: as §1, with “corn leaves (Zea mays)” for “Chinese cabbage (Brassica pekinensis)”, “caterpillars” for “larvae”, “army worm (Spodoptera frugiperda).” for “mustard beetle (Phaedon cochleariae).”, “caterpillars” for “beetle larvae”
# [4] = system: green peach aphid (Myzus persicae); test: Myzus test (spray treatment, Brassica pekinensis); type: in vivo; settings: for Kill rate in % after 5 d: 500 g/ha, spray, Brassica pekinensis disks
# Protocol: as §1, with “pekinensis) which are infested by all stages of the green peach aphid (Myzus persicae)” for “pekinensis)”, “concentration.” for “concentration and, after drying, populated with larvae of the mustard beetle (Phaedon cochleariae).”, “aphids” for “beetle larvae”
# [5] = system: common spidermite (Tetranychus urticae); test: Tetranychus test; type: in vivo; settings: for Kill rate in % after 5 d: 500 ppm, spray, Phaseolus vulgaris disks
# Protocol: To produce a suitable preparation of active compound, 1 part by weight of active compound is mixed with the stated amounts of solvent and emulsifier, and the concentrate is diluted with emulsifier-containing water to the desired concentration.
# Disks of beans (Phaseolus vulgaris), which are infested by all stages of the common spidermite (Tetranychus urticae) are sprayed with an active compound preparation of the desired concentration.
# After the desired period of time, the effect in % is determined. 100% means that all spidermites have been killed; 0% means that none of the spidermites have been killed.
# [6] = system: green peach aphid (Myzus persicae); test: Myzus test - oral; type: in vivo; settings: for Kill rate in % after 6 d: oral (sucking)
# Protocol: [table] To produce a suitable preparation of active compound, 1 part by weight of active compound is mixed with the stated amounts of solvent, and the concentrate is diluted with water to the desired concentration. Vessels are populated with all stages of the green peach aphid (Myzus persicae), which are treated by sucking on the active compound preparation of the desired concentration. After the desired period of time, the effect in % is determined. 100% means that all aphids have been killed; 0% means that none of the aphids have been killed.
# [7] = system: green peach aphid (Myzus persicae); test: Myzus test (spray treatment, Brassica oleracea); type: in vivo; settings: for Kill rate in % after 7 d: 500 g/ha, spray, Brassica oleracea
# Protocol: (§2) [table] To produce a suitable preparation of active compound, 1 part by weight of active compound is mixed with the stated amounts of solvent and emulsifier, and the concentrate is diluted with emulsifier-containing water to the desired concentration. Cabbage leaves (Brassica oleracea) which are heavily infested by the green peach aphid (Myzus persicae) are treated by spraying with the active compound preparation at the desired concentration. After the desired period of time, the kill in % is determined. 100% means that all animals have been killed; 0% means that none of the animals have been killed.
# [8] = system: cotton aphid (Aphis gossypii); test: Aphis gossypii test; type: in vivo; settings: for Kill rate in % after 7 d: 500 g/ha, spray, Gossypium hirsutum
# Protocol: as §2, with “Cotton” for “Cabbage”, “(Gossypium hirsutum)” for “(Brassica oleracea)”, “cotton” for “green peach”, “(Aphis gossypii)” for “(Myzus persicae)”
# [9] = system: larvae of the mustard beetle (Phaedon cochleariae); test: Phaedon larvae test (cabbage leaves dipped); type: in vivo
# Protocol: [table] To produce a suitable preparation of active compound, 1 part by weight of active compound is mixed with the stated amount of solvent and the stated amount of emulsifier, and the concentrate is diluted with water to the desired concentration. Cabbage leaves (Brassica oleracea) are treated by being dipped into the active compound preparation of the desired concentration and populated with larvae of the mustard beetle (Phaedon cochleariae) while the leaves are still moist. After the desired period of time, the kill in % is determined. 100% means that all beetle larvae have been killed; 0% means that none of the beetle larvae have been killed.
# [10] = system: black bean aphid (Aphis fabae); test: Aphis fabae test; type: in vivo
# Protocol: [table] To produce a suitable preparation of active compound, 1 part by weight of active compound is mixed with the stated amounts of solvent and emulsifier, and the concentrate is diluted with emulsifier-containing water to the desired concentration. Shoots of young broadbeans (Vicia faba) which are heavily infested by the black bean aphid (Aphis fabae) are treated by being dipped into the active compound preparation of the desired concentration. After the desired period of time, the kill in % is determined. 100% means that all aphids have been killed; 0% means that none of the aphids have been killed.
# [11] = system: caterpillars of the army worm (Spodoptera frugiperda); test: Spodoptera frugiperda test (cabbage leaves dipped); type: in vivo; settings: for Kill rate in % after 7 d: 500 ppm, leaf dip, Brassica oleracea
# Protocol: (§3) [table] To produce a suitable preparation of active compound, 1 part by weight of active compound is mixed with the stated amount of solvent and the stated amount of emulsifier, and the concentrate is diluted with emulsifier-containing water to the desired concentration. Cabbage leaves (Brassica oleracea) are treated by being dipped into the active compound preparation of the desired concentration and populated with caterpillars of the army worm (Spodoptera frugiperda) while the leaves are still moist. After the desired period of time, the kill in % is determined. 100% means that all caterpillars have been killed; 0% means that none of the caterpillars have been killed.
# Meloidogyne incognita = test: Meloidogyne test (gall formation on lettuce roots); type: in vivo; settings: for Kill rate in % after 14 d (nematicidal effect by gall formation): 20 ppm, lettuce in sand
# Protocol: [table] To produce a suitable preparation of active compound, 1 part by weight of active compound is mixed with the stated amounts of solvent and emulsifier, and the concentrate is diluted with water to the desired concentration. Vessels are filled with sand, active compound solution, Meloidogyne incognita egg/larvae suspension and lettuce seeds. The lettuce seeds germinate and the plants develop. On the roots, galls are formed. After the desired period of time, the nematicidal effect is determined in % by means of gall formation. 100% means that no galls were found; 0% means that the number of galls on the treated plants corresponds to that of the untreated control.
# [12] = system: caterpillars of the diamond back moth (Plutella xylostella); test: Plutella test; type: in vivo
# Protocol: as §3, with “amounts” for “amount”, “and” for “and the stated amount of”, “diamond back moth (Plutella xylostella)” for “army worm (Spodoptera frugiperda)”
smiles,measurement,setting,value
CC(C)(C)C(=O)OC1=C(c2ccccc2Cl)C(=O)N(C2CCCC(C(F)(F)F)C2)C1=O (centres unmarked) [Example 201],logP,[1],logP = 5.29^a)
same,activity in the Phaedon test (spray treatment),[2],good activity
same,Kill rate in % after 7 d,[2],100%
same,activity in the Spodoptera frugiperda test (spray),[3],good activity
same,Kill rate in % after 7 d,[3],100%
same,"activity in the Myzus test (spray, Brassica pekinensis)",[4],good activity
same,Kill rate in % after 5 d,[4],100%
same,activity in the Tetranychus test,[5],good activity
same,Kill rate in % after 5 d,[5],100%
same,activity in the Myzus test - oral,[6],good activity
same,Kill rate in % after 6 d,[6]; 20 ppm,100%
same,"activity in the Myzus test (spray, Brassica oleracea)",[7],good activity
same,Kill rate in % after 7 d,[7],98%
same,activity in the Aphis gossypii test,[8],good activity
same,Kill rate in % after 7 d,[8],99%
O=C1C(O)=C(c2ccc(F)cc2C(F)(F)F)C(=O)N1C1CCCC(C(F)(F)F)C1 (centres unmarked) [Example 192],logP,[1],logP = 3.56^a)
same,activity in the Phaedon test (spray treatment),[2],good activity
same,Kill rate in % after 7 d,[2],100%
same,activity in the Tetranychus test,[5],good activity
same,Kill rate in % after 5 d,[5],90%
same,activity in the Myzus test - oral,[6],good activity
O=C1C(O)=C(c2ccccc2I)C(=O)N1C1CCCC(C(F)(F)F)C1 (centres unmarked) [Example 219],activity in the Phaedon test (spray treatment),[2],good activity
same,Kill rate in % after 7 d,[2],100%
same,activity in the Spodoptera frugiperda test (spray),[3],good activity
same,Kill rate in % after 7 d,[3],100%
same,"activity in the Myzus test (spray, Brassica pekinensis)",[4],good activity
same,Kill rate in % after 5 d,[4],90%
same,activity in the Myzus test - oral,[6],good activity
same,Kill rate in % after 6 d,[6]; 100 ppm,100%
CC(C)(C)C(=O)OC1=C(c2ccccc2Br)C(=O)N(C2CCCC(C(F)(F)F)C2)C1=O (centres unmarked) [Example 185],logP,[1],logP = 5.34^a)
same,activity in the Phaedon test (spray treatment),[2],good activity
same,Kill rate in % after 7 d,[2],100%
same,activity in the Spodoptera frugiperda test (spray),[3],good activity
same,Kill rate in % after 7 d,[3],100%
same,"activity in the Myzus test (spray, Brassica pekinensis)",[4],good activity
same,Kill rate in % after 5 d,[4],100%
same,activity in the Tetranychus test,[5],good activity
same,Kill rate in % after 5 d,[5],80%
same,activity in the Myzus test - oral,[6],good activity
same,Kill rate in % after 6 d,[6]; 20 ppm,100%
same,"activity in the Myzus test (spray, Brassica oleracea)",[7],good activity
same,Kill rate in % after 7 d,[7],95%
same,activity in the Aphis gossypii test,[8],good activity
same,Kill rate in % after 7 d,[8],95%
C=CCN1C(=O)C(O)=C(c2c(C)cc(C)cc2C)C1=O [Example 4],activity in the Phaedon larvae test,[9],good activity
same,Kill rate in % after 7 d,"[9]; 1000 ppm, leaf dip, Brassica oleracea",100%
same,"activity in the Myzus test (spray, Brassica pekinensis)",[4],good activity
same,Kill rate in % after 5 d,[4],70%
same,activity in the Aphis fabae test,[10],good activity
same,Kill rate in % after 6 d,"[10]; 1000 ppm, Vicia faba shoots dipped",99%
O=C1C(O)=C(c2ccc(C(F)(F)F)cc2)C(=O)N1c1ccc(OC(F)(F)F)cc1 [Example 10],logP,[1],logP = 3.64^a)
same,activity in the Spodoptera frugiperda test (leaf dip),[11],good activity
same,Kill rate in % after 7 d,[11],100%
same,activity in the Meloidogyne test,Meloidogyne incognita,good activity
same,Kill rate in % after 14 d (nematicidal effect by gall formation),Meloidogyne incognita,99%
"CCN1C(=O)C(OC(=O)C(C)(C)C)=C(c2c(C)cc(C)cc2C)C1=O [Example 2, 1-ethyl-3-pivaloyloxy-4-(2,4,6-trimethylphenyl)-1H-pyrrole-2,5-dione]","activity in the Myzus test (spray, Brassica pekinensis)",[4],good activity
same,Kill rate in % after 5 d,[4],90%
same,melting point,,91 °C
N#Cc1ccc(C2=C(O)C(=O)N(C3CCCC(C(F)(F)F)C3)C2=O)cc1 (centres unmarked) [Example 215],logP,[1],logP = 3.04^a)
same,activity in the Spodoptera frugiperda test (leaf dip),[11],good activity
same,Kill rate in % after 7 d,[11],85%
same,activity in the Meloidogyne test,Meloidogyne incognita,good activity
same,Kill rate in % after 14 d (nematicidal effect by gall formation),Meloidogyne incognita,80%
"CCN1C(=O)C(O)=C(c2c(C)cc(C)cc2C)C1=O [Example 1, 1-ethyl-3-hydroxy-4-(2,4,6-trimethylphenyl)-1H-pyrrole-2,5-dione]",melting point,,168 °C
CC(C)(C)C(=O)OC1=C(c2ccccc2C(F)(F)F)C(=O)N(C2CCCC(C(F)(F)F)C2)C1=O (centres unmarked) [Example 220],activity in the Phaedon test (spray treatment),[2],good activity
same,Kill rate in % after 7 d,[2],100%
same,activity in the Meloidogyne test,Meloidogyne incognita,good activity
same,Kill rate in % after 14 d (nematicidal effect by gall formation),Meloidogyne incognita,80%
same,"activity in the Myzus test (spray, Brassica pekinensis)",[4],good activity
same,Kill rate in % after 5 d,[4],100%
CCN1C(=O)C(OC(C)=O)=C(c2c(C)cc(C)cc2C)C1=O [Example 3],"activity in the Myzus test (spray, Brassica pekinensis)",[4],good activity
same,Kill rate in % after 5 d,[4],90%
same,activity in the Plutella test,[12],good activity
same,Kill rate in % after 7 d,"[12]; 1000 ppm, leaf dip",90%
